# Reference: patent US7087616B2, “Pyrazolyl pyrimidines” (Bayer CropScience AG, priority 2001, dated 2006)
# Like-named read-outs stand apart in the source and are kept apart here.
# Columns and labels:
# Meloidogyne incognita = test: Meloidogyne Test; type: in vivo; conditions: 20 ppm, nematicidal action by gall formation on lettuce
# Protocol: (§1) To produce a suitable preparation of active compound, 1 part by weight of active compound is mixed with the stated amounts of solvent and emulsifier, and the concentrate is diluted with water to the desired concentration.
# Containers are filled with sand, solution of active compound, Meloidogyne incognita egg/larvae suspension and lettuce seeds. The lettuce seeds germinate and the plants develop. On the roots, galls are formed.
# After the desired period of time, the nematicidal action is determined in % by the gall formation. 100% means that no galls were found; 0% means that the number of galls on the treated plants corresponds to that of the untreated control.
# The amount of solvent, amount of emulsifier, active compounds, active compound concentrations and test results are shown in the Tables below.
# [1] = tested on: cotton aphid (Aphis gossypii); test: Aphis gossypii Test; type: in vivo; conditions: 144 h, read-out: Kill rate in % after 6d
# Protocol: (§2) To produce a suitable preparation of active compound, 1 part by weight of active compound is mixed with the stated amounts of solvent and emulsifier, and the concentrate is diluted with emulsifier-containing water to the desired concentration.
# Cotton leaves (Gossypium hirsutum) which are heavily infested by the cotton aphid (Aphis gossypii) are treated by being dipped into the preparation of active compound of the desired concentration.
# (§3) After the desired period of time, the kill in % is determined. 100% means that all aphids have been killed; 0% means that none of the aphids have been killed.
# [2] = tested on: larvae of the mustard beetle (Phaedon cochlearae); test: Phaedon Larvae Test; type: in vivo; conditions: 500 ppm; cabbage leaves dipped
# Protocol: [table] To produce a suitable preparation of active compound, 1 part by weight of active compound is mixed with the stated amounts of solvent and emulsifier, and the concentrate is diluted with emulsifier-containing water to the desired concentration. Cabbage leaves (Brassica oleracea) are treated by being dipped into the preparation of active compound of the desired concentration and are populated with larvae of the mustard beetle (Phaedon cochlearae) while the leaves are still moist.
# [3] = Aust. J. Chem. 1980, 33, 2291–2298; cited from earlier work
# [4] = tested on: peach aphids (Myzus persicae); test: Myzus Test/Cabbage; type: in vivo; conditions: 144 h, read-out: Kill rate in % after 6d
# Protocol: as §2
# Cabbage leaves (Brassica oleracea) which are heavily infested by peach aphids (Myzus persicae) are treated by being dipped into the preparation of active compound of the desired concentration.
# as §3
# Amounts of solvent, amounts of emulsifier, active compounds, active compound concentrations and test results are shown in the Tables below.
# [5] = tested on: green peach aphids (Myzus persicae); test: Myzus Test/Broad Beans; type: in vivo; conditions: broad bean seedlings dipped
# Protocol: To produce a suitable preparation of active compound, 1 part by weight of active compound is mixed with the stated amount of solvent and the stated amount of emulsifier, and the concentrate is diluted with emulsifier-containing water to the desired concentrations.
# Broad bean (Vicia faba minor) seedlings which are infested by green peach aphids (Myzus persicae) are dipped into a preparation of active compound of the desired concentration and placed into a plastic box.
# After the desired period of time, the kill in % is determined. 100% means that all animals have been killed; 0% means that none of the animals have been killed.
# Aphis gossypii = test: Critical Concentration/Root-systemic Action; type: in vivo; conditions: 20 ppm (mg/l soil); root-systemic action, cucumber plants
# Protocol: as §1
# The preparation of active compound is intimately mixed with soil. The concentration of the active compound in the preparation is of practically no importance here, only the amount by weight of active compound per unit volume of soil, which is given in ppm (=mg/l), being decisive. The treated soil is transferred into pots and these are planted with cucumber plants at the cotyledon stage. In this way, the active compound can be taken up from the plant and be transported into the leaves.
# After a further 7 days, evaluation is carried out by counting or estimating the dead animals. The root-systemic action of the active compound is deduced from the mortality figures. It is 100% if all test animals have been killed and 0% if just as many test insects are still alive as in the case of the untreated controls.
# [6] = Table A 2, emulsifier 2 parts by weight
smiles,measurement,setting,value
O=C(O)CSc1nccc(-n2cc(-c3ccc(Cl)cc3)cn2)n1,Kill rate in % after 14d,Meloidogyne incognita; [6],80%
CCOC(=O)CSc1nccc(-n2ccc(C(C)=O)n2)n1,Kill rate in % after 14d,Meloidogyne incognita; [6],80%
CCOC(=O)CSc1nccc(-n2cc(OC)cn2)n1,pest or weed control at 500 ppm,"[1]; 500 ppm, cotton leaves dipped",95%
O=C(CSc1nccc(-n2cc(Cl)cn2)n1)OCC(F)(F)C(F)(F)C(F)(F)F,pest or weed control at 500 ppm,[1],99%
O=C(O)CSc1nccc(-n2cc(-c3ccccc3)cn2)n1,Kill rate in % after 7d,[2],100%
"Cc1cc(C)n(-c2ccnc(SCC(N)=O)n2)n1 [2-{[4-(3,5-dimethyl-1H-pyrazol-1-yl)-2-pyrimidinyl]thio}acetamide]",enhancing effect on phleomycin,[3],no enhancing effect
COC(=O)CSc1nccc(-n2cc(C)cn2)n1 [drawing 167],Kill rate in % after 14d,"Meloidogyne incognita; Table A 1, emulsifier 1 part by weight",90%
CCOC(=O)CSc1nccc(-n2cc(Cl)cn2)n1 [drawing 169],Kill rate in % after 14d,Meloidogyne incognita; [6],100%
C#Cc1cnn(-c2ccnc(SCC(=O)OCC)n2)c1 [drawing 171],Kill rate in % after 14d,Meloidogyne incognita; [6],90%
O=C(O)CSc1nccc(-n2cc(Cl)cn2)n1 [drawing 172],Kill rate in % after 14d,Meloidogyne incognita; [6],85%
C=Cc1cnn(-c2ccnc(SCC(=O)OCC)n2)c1 [drawing 173],Kill rate in % after 14d,Meloidogyne incognita; [6],80%
CC(OC(=O)CSc1nccc(-n2cc(Cl)cn2)n1)C(F)(F)C(F)(F)C(F)(F)F (stereo not shown) [drawing 191],pest or weed control at 500 ppm,[4],100%
COc1cnn(-c2ccnc(SCC(=O)OC(C)C(F)(F)C(F)(F)C(F)(F)F)n2)c1 (stereo not shown) [drawing 192],pest or weed control at 500 ppm,[4],100%
CC(OC(=O)CSc1nccc(-n2cc(Br)cn2)n1)C(F)(F)C(F)(F)C(F)(F)F (stereo not shown) [drawing 193],pest or weed control at 500 ppm,[4],100%
COC(=O)CSc1nccc(-n2cc(C)cn2)n1 [drawing 194],Kill rate in % after 6d,[5]; 500 ppm,100%
COC(=O)CSc1nccc(-n2cc(Br)cn2)n1 [drawing 195],Kill rate in % after 6d,[5]; 100 ppm,100%
CCOC(=O)CSc1nccc(-n2cc(C)cn2)n1 [drawing 196],Kill rate in % after 6d,[5]; 500 ppm,99%
CCOC(=O)CSc1nccc(-n2cccn2)n1 [drawing 197],Kill rate in % 7d after infection,Aphis gossypii,90%
CCOC(=O)CN(C)c1nccc(-n2cccn2)n1 [drawing 198],pest or weed control at 500 ppm,"[1]; 500 ppm, cotton leaves dipped",99%
CCOC(=O)CSc1nccc(-n2cc(C(F)(F)F)cn2)n1 [drawing 201],pest or weed control at 500 ppm,"[1]; 500 ppm, cotton leaves dipped",95%
CN(CC(=O)OCC(F)(F)C(F)(F)C(F)(F)F)c1nccc(-n2cc(Cl)cn2)n1 [drawing 202],pest or weed control at 500 ppm,[1],95%
CC(OC(=O)CSc1nccc(-n2cc(Cl)cn2)n1)C(F)(F)C(F)(F)C(F)(F)F (stereo not shown) [drawing 204],pest or weed control at 500 ppm,[1],90%
COc1cnn(-c2ccnc(SCC(=O)OCC(F)(F)F)n2)c1 [drawing 205],pest or weed control at 500 ppm,"[1]; 500 ppm, cotton leaves dipped",100%
CCOC(=O)CSc1nccc(-n2cc(SC(F)(F)C(F)F)cn2)n1 [drawing 206],pest or weed control at 500 ppm,"[1]; 500 ppm, cotton leaves dipped",90%
CCOC(=O)CSc1nccc(-n2cc(-c3ccccc3)cn2)n1 [drawing 207],Kill rate in % after 7d,[2],100%
